According to PMC8219027, “A small-molecule inhibitor of the BRCA2-RAD51 interaction modulates RAD51 assembly and potentiates DNA damage-induced cell death” (Cell Chemical Biology, 2021):
≈ marks a conversion by molar mass, not a printed value.

Tests used:
[1] = test system: HL-60; assay: cells; details: Homo sapiens, HL-60, read-out: Absolute EC50, growth inhibition
[2] = Aqueous solubility
[3] = test system: LN229; assay: cells; details: Homo sapiens, LN-229, read-out: Absolute EC50, growth inhibition
[4] = test system: PC3; assay: cells; details: Homo sapiens, PC-3, read-out: Absolute EC50, growth inhibition
[5] = test system: HT1367; assay: cells; details: Homo sapiens, read-out: Absolute EC50, growth inhibition
[6] = Microsomal intrinsic clearance; details: mouse, mouse microsomes
[7] = test system: K562; assay: cells; details: Homo sapiens, K562, read-out: Absolute EC50, growth inhibition
[8] = test system: Calu3; assay: cells; details: Homo sapiens, Calu-3, read-out: Absolute EC50, growth inhibition
[9] = test system: HFL-1; assay: cells; details: Homo sapiens, HFL1, read-out: Absolute EC50, growth inhibition
[10] = test system: T24/83; assay: cells; details: Homo sapiens, T24/83, read-out: Absolute EC50, growth inhibition
[11] = test system: A375; assay: cells; details: Homo sapiens, A-375, read-out: Absolute EC50, growth inhibition
[12] = test system: SK-OV-3; assay: cells; details: Homo sapiens, SK-OV-3, read-out: Absolute EC50, growth inhibition
[13] = test system: SK-MEL-24; assay: cells; details: Homo sapiens, SK-MEL-24, read-out: Absolute EC50, growth inhibition
[14] = test system: 5637; assay: cells; details: Homo sapiens, read-out: Absolute EC50, growth inhibition
[15] = biological target: hERG (Homo sapiens, UniProt Q12809); assay: hERG electrophysiology (whole-cell voltage-clamping); details: @ 10 uM, whole-cell voltage-clamping in mammalian cells
[16] = test system: BT549; assay: cells; details: Homo sapiens, BT-549, read-out: Absolute EC50, growth inhibition
[17] = test system: Raji; assay: cells; details: Homo sapiens, read-out: Absolute EC50, growth inhibition
[18] = Mouse iv pharmacokinetics; details: male, CD-1, mouse, in vivo, 1 mg/kg
[19] = test system: Caco-2; assay: Caco-2 permeability; assay type: in vitro ADME; details: summary of Table S1
[20] = Caco-2 permeability; assay type: in vitro ADME; details: human, Caco-2
[21] = test system: A549; assay: cells; details: Homo sapiens, A549, read-out: Absolute EC50, growth inhibition
[22] = Microsomal intrinsic clearance; details: human, human microsomes
[23] = test system: U87; assay: cells; details: Homo sapiens, U-87 MG, read-out: Absolute EC50, growth inhibition
[24] = test system: MDA-MB-453; assay: cells; details: Homo sapiens, MDA-MB-453, read-out: Absolute EC50, growth inhibition
[25] = biological target: T1, CYP450 2C9 (Homo sapiens, UniProt P11712); assay: CYP450 inhibition; assay type: in vitro ADME
T1 construct: Cyprotex (contract data)

[26] = test system: RT112/84; assay: cells; details: Homo sapiens, RT112/84, read-out: Absolute EC50, growth inhibition
[27] = test system: Mia-pa-ca2; assay: cells; details: Homo sapiens, MIA PaCa-2, read-out: Absolute EC50, growth inhibition
[28] = test system: HCT116 cells; assay: SRB growth inhibition assay; assay type: cell-based, human; details: for IC50 / GI50: Homo sapiens; for IC50: HCT-116, 96 h, Figure 6D (cell line not given); for GI50: HCT-116, geometrical mean, n = 18
Procedure: Adherent cell lines (HCT116 and A549 cells) were seeded into flat-bottomed tissue culture 96-well plates in a volume of 150 μL of growth medium. HCT116 cells were seeded at 750 cells per well and A549 cells were seeded at 1000 cells per well. After 24 hours, compounds dissolved in DMSO were diluted in growth medium and were added to cells such that the final DMSO concentration was 1% (v/v) and the final volume in the well was 200 μL. Cells were then incubated in the presence of compound for 96 hours before fixation.
Medium was removed from cells and 100 μL of cold 1% (v/v) trichloroacetic acid was added for 30 minutes at 4 degrees. The plates were washed three times in tap water and left to dry at room temperature. The fixed cells were stained in a 0.057% sulphorodamine B/1% acetic acid solution (w/v) and incubated at room temperature with agitation for 30 minutes after which the dye was removed and the plates washed in 1% (v/v) acetic acid and left to dry. The dye was then solubilised in 10 mM Tris solution (pH8) and incubated for 30 minutes under agitation. The plates were then read on a PHERAstar plus plate reader (BMG Labtech) using the fluorescence intensity module (540-590 nm). Growth inhibition was calculated relative to DMSO controls and GI50 values were calculated using Graphpad Prism.

[29] = test system: NCI-H209; assay: cells; details: Homo sapiens, NCI-H209, read-out: Absolute EC50, growth inhibition
[30] = test system: Caki1; assay: cells; details: Homo sapiens, CAKI-1, read-out: Absolute EC50, growth inhibition
[31] = biological target: T2, CYP450 2C19 (Homo sapiens, UniProt P33261); assay: CYP450 inhibition; assay type: in vitro ADME
T2 construct: Cyprotex (contract data)
T2 sequence (P33261 whole entry): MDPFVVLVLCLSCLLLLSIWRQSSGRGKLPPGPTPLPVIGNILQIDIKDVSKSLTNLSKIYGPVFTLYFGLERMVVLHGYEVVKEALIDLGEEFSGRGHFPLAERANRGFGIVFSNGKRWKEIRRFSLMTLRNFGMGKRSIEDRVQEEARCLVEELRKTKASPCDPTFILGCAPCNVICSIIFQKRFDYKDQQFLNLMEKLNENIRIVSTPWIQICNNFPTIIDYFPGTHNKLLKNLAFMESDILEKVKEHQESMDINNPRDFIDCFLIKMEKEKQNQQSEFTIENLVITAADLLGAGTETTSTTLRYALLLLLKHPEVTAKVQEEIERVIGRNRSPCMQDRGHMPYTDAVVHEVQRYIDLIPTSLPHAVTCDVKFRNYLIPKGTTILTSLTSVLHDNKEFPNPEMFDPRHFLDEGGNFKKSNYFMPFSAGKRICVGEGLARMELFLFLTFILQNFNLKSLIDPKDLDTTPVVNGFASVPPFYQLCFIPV

T1 sequence (P11712 whole entry): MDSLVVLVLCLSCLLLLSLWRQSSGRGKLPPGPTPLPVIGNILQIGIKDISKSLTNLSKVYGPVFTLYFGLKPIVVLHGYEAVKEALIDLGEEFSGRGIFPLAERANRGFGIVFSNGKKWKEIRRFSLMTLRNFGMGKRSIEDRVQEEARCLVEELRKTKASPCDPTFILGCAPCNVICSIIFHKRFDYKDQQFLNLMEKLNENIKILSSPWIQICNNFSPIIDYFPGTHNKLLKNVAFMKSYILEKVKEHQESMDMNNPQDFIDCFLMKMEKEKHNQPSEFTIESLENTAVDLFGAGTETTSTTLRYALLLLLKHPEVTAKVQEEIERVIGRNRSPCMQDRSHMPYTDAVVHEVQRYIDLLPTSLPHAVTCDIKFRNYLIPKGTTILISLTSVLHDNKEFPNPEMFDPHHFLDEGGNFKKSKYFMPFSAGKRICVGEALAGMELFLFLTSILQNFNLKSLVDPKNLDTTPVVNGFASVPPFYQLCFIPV
Chain of hERG (Q12809 whole entry): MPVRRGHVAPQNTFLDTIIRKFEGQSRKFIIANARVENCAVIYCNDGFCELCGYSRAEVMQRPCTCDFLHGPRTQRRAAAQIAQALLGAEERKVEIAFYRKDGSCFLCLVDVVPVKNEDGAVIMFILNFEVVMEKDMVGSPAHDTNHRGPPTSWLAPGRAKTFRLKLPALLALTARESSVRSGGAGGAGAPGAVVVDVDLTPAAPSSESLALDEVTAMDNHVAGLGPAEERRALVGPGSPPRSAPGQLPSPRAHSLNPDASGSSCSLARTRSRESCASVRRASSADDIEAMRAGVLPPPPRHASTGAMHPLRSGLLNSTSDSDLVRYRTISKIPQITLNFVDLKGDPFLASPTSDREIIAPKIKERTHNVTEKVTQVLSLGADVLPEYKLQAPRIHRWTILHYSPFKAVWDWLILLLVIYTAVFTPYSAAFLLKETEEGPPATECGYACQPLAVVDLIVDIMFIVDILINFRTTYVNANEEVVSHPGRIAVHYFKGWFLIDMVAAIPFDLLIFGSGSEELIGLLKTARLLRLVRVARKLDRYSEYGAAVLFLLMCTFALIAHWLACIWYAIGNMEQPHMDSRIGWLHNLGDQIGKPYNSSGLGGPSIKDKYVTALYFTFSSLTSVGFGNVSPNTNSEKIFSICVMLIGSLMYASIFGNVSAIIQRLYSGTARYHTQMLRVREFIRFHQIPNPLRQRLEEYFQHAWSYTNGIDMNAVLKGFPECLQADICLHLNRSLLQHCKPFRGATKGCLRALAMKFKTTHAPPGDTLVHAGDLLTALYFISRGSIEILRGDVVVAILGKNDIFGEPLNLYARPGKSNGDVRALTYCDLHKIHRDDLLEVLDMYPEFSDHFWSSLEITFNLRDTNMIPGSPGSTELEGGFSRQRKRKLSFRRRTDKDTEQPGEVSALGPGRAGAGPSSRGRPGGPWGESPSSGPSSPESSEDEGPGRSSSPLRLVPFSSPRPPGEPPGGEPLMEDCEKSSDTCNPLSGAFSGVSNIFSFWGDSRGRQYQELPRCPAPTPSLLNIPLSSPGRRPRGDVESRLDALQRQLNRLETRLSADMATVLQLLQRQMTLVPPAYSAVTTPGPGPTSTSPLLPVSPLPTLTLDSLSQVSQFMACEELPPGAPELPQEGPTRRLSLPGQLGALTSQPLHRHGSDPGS

COc1ccc([C@H](C)NC(=O)[C@@H]2C[C@@H](O)CN2C(=O)CNC(=O)c2ccc3cc(F)ccc3n2)c(Cl)c1 [CAM833, N-(2-((2S,4R)-2-(((S)-1-(2-chloro-4-methoxyphenyl)ethyl)carbamoyl)-4-hydroxypyrrolidin-1-yl)-2-oxoethyl)-6-fluoroquinoline-2-carboxamide]
EC50 [1]: 87.7 µM
solubility ([2]; pH 7.4 buffer, pH 7.4, aqueous buffer, thermodynamic from solid): 7.75 µg/mL (≈ 14.7 µM)
solubility (in words) ([2]; summary of Table S1): moderate
EC50 [3]: 117 µM
EC50 [4]: 91.2 µM
EC50 [5]: 104 µM
half-life [6]: 0.718 h
microsomal CLint [6]: 32.2 ± 2.99 µL/min/mg
EC50 [7]: 137 µM
EC50 [8]: 83.3 µM
EC50 [9]: 98.8 µM
EC50 [10]: 96.7 µM
EC50 [11]: 72 µM
EC50 [12]: 105 µM
EC50 [13]: 144 µM
EC50 [14]: 84.5 µM
Inhibition of hERG tail-currents [15]: 12%
EC50 [16]: 73.8 µM
EC50 [17]: 95.6 µM
Vd [18]: 2.51 L/kg
clearance [18]: 44.6 mL/min/kg
half-life [18]: 1.44 h
permeability (in words) [19]: moderate
efflux ratio [20]: 195
Papp A→B ([20]; A to B, read-out: Caco-2 permeability AtoB Papp): 0.23 ×10⁻⁶ cm/s
EC50 [21]: 39 µM
half-life [22]: 1.28 h
microsomal CLint [22]: 18 ± 4.52 µL/min/mg
EC50 [23]: 109 µM
EC50 [24]: 48 µM
IC50 [25]: > 25 µM
EC50 [26]: 70.6 µM
EC50 [27]: 68.6 µM
GI50 with 3 Gy IR lower than GI50 for compound alone ([28]; HCT116): more than 2 fold
IC50 ([28]; 0 Gy IR, SRB 96 h): 63.5 µM
IC50 ([28]; 1 Gy IR, SRB 96 h): 30.4 µM
IC50 ([28]; 2 Gy IR, SRB 96 h): 13 µM
IC50 ([28]; 3 Gy IR, SRB 96 h): 11.8 µM
GI50 ([28]; HCT116, CAM833 alone, 96 h exposure): 38 µM
GI50 ([28]; HCT116, combined with 3 Gy IR): 14 µM
effect of combination with increasing doses of IR on growth suppression (in words) ([28]; fixed 10 μM dose, 0 to 3 Gy IR, SRB 96 h): potentiates
EC50 [29]: 69.3 µM
EC50 [30]: 73 µM
IC50 [31]: > 25 µM
